Common to all, as to type: cell-based
Data set [1] has as its system Fusarium graminerarum ATCC16106. Kind of data set: Fungus panel screening, CLSI broth microdilution. The conditions noted are these: for MIC50: 50% inhibition by visual inspection (CLSI); for MIC: 100% inhibition by visual inspection (CLSI), read-out: MIC100. How it is done: (§1) Fungus panel screening was conducted by Eurofins Panlabs Inc. The MIC and MIC50 values of the test articles were determined following the guidelines of the CLSI: broth microdilution methods for yeast (CLSI M27-A2), (CLSI, 2002) and for filamentous fungi (CLSI M38-A), (CLSI, 2008).

Data set [2] relates to Rhizopus oryzae ATCC11145. Nature of the data set: Fungus panel screening, CLSI broth microdilution. As to conditions: Rhizopus arrhizus; for MIC50: 50% inhibition by visual inspection (CLSI); for MIC: 100% inhibition by visual inspection (CLSI), read-out: MIC100. How it is done:
as §1

Data set [3] relates to Candida glabrata AT0036583. Kind of data set: Fungus panel screening, CLSI broth microdilution. The conditions noted are these: Nakaseomyces glabratus; for MIC50: 50% inhibition by visual inspection (CLSI); for MIC: 100% inhibition by visual inspection (CLSI), read-out: MIC100. How it is done: as §1
The subject of data set [4] is Penicillium chrysogenum ATCC9480. Kind of data set: Fungus panel screening, CLSI broth microdilution. As to conditions: for MIC50: 50% inhibition by visual inspection (CLSI); for MIC: 100% inhibition by visual inspection (CLSI), read-out: MIC100. How it is done:
as §1

The subject of data set [5] is Candida albicans 20183.073. Kind of data set: Fungus panel screening, CLSI broth microdilution. The conditions noted are these: for MIC50: 50% inhibition by visual inspection (CLSI); for MIC: 100% inhibition by visual inspection (CLSI), read-out: MIC100. How it is done: as §1
The subject of data set [6] is Candida albicans ATCC10231. Kind of data set: Fungus panel screening, CLSI broth microdilution. The conditions noted are these: for MIC50: 50% inhibition by visual inspection (CLSI); for MIC: 100% inhibition by visual inspection (CLSI), read-out: MIC100. How it is done: as §1
The subject of another data set is Candida krusei ATCC6258. Nature of the data set: Fungus panel screening, CLSI broth microdilution. The conditions noted are these: Pichia kudriavzevii; for MIC50: 50% inhibition by visual inspection (CLSI); for MIC: 100% inhibition by visual inspection (CLSI), read-out: MIC100. How it is done: as §1
The subject of data set [7] is Cryptococcus neoformans ATCC24067. Kind of data set: Fungus panel screening, CLSI broth microdilution. The conditions noted are these: for MIC50: 50% inhibition by visual inspection (CLSI); for MIC: 100% inhibition by visual inspection (CLSI), read-out: MIC100. How it is done:
as §1

Data set [8] concerns Aureobasidium pullulans ATCC9348. Nature of the data set: Fungus panel screening, CLSI broth microdilution. As to conditions: for MIC50: 50% inhibition by visual inspection (CLSI); for MIC: 100% inhibition by visual inspection (CLSI), read-out: MIC100. How it is done:
as §1

For data set [9], the system named is Aspergillus fumigatus (NCPF2010). Kind of data set: Aspergillus fumigatus infection of BEAS2B bronchial epithelial cells (galactomannan). As to conditions: NCPF2010, galactomannan in supernatant, 24 hr, n = 1-3, read-out: Infection of BEAS2B cells MIC50. How it is done: BEAS2B cells were seeded in 96-well plates (100 μL; 3×10^4 cells/well; Catalogue No 3596, Sigma Aldrich, Dorset, UK) in 10% FBS RPMI-1640 and were then incubated (37° C., 5% CO2) for one day before experimentation. Test compounds (0.5 μL DMSO solution) or vehicle (DMSO) were added to each well to give a final DMSO concentration of 0.5%. BEAS2B cells were incubated with test compounds for 1 hr (35° C., 5% CO2) before infection with Aspergillus fumigatus (20 uL; Public Health England) conidia suspension (0.5×10^5/mL in 10% FBS RPMI-1640). The plate was incubated for 24 hr (35° C., 5% CO2). Supernatant (50 uL) was collected and transferred to a PCR plate (Catalogue No L1402-9700, Starlab, Milton Keynes, UK), which was frozen (−20° C.) until use. After thawing, supernatant (5 μL) was diluted 1:20 by adding R7-PBS solution (95 μL; 1:4 R7 to PBS; Bio-Rad Laboratories, Redmond, Wash., USA). Galactomannan levels in these samples (50 μL) were measured using Platelia GM-EIA kits (Bio-Rad Laboratories, Redmond, Wash., USA). The percentage inhibition for each well was calculated and the IC50 value was calculated from the concentration-response curve generated for each test compound.

A short description of data set [10]: Cell viability: resazurin assay. The conditions noted are these: human, 1 day incubation, resazurin, n = 3. How it is done: BEAS2B cells were seeded in 384-well plates (100 μL; 3000/well/; BD Falcon, Catalogue No 353962) in RPMI-LHC8 (RPMI-1640 and LHC8 media combined in equal proportions) one day before experimentation. For cell-free control wells, RPMI-LHC8 (100 μL) was added. Test compounds (0.5 μL of a DMSO solution) were added to give a final DMSO concentration of 0.5% using an Integra VIAFLO 96 (Integra, Zizers, Switzerland). BEAS2B cells were incubated with each test compound for 1 day (37° C./5% CO2 in RPMI-LHC8). After addition of resazurin stock solution (5 μL, 0.04%) the plates were incubated for a further 4 hr (37° C./5% CO2). The fluorescence of each well at 545 nm (excitation) and 590 nm (emission) was determined using a multi-scanner (Clariostar: BMG Labtech). The percentage loss of cell viability was calculated for each well relative to vehicle (0.5% DMSO) treatment. Where appropriate, a CC50 value was calculated from the concentration-response curve generated from the concentration-response curve for each test compound.

The test system of data set [11] is Aspergillus fumigatus NCPF7099. Nature of the data set: Planktonic fungus growth: broth microdilution assay (NCPF7099). As to conditions: Aspergillus fumigatus, NCPF7099, n = 2-3, read-out: MIC75 Values against Aspergillus fumigatus isolate NCPF7099. How it is done: This assay was conducted using a modified method published by EUCAST (Rodriguez-Tudela, et al., 2008). Spores of Aspergillus fumigatus (NCPF2010, NCPF7010 [methionine 220 mutation], NCPF7099 [Glycine G54 mutation]) from Public Health England, Wiltshire; TR34/L98H mutants from St Louis Hospital, Paris, France; TR46/Y121F/T289A mutants from University of Delhi, Delhi, India) were cultured in Sabouraud dextrose agar for 3 days. A stock spore suspension was prepared from a Sabouraud dextrose agar culture by washing with PBS-tween (10 mL; phosphate buffered saline containing 0.05% Tween-20, 100 U/mL penicillin and 100 U/mL streptomycin). The spore count was assessed using a Neubauer haemocytometer and then adjusted to 10^6 spores/mL with PBS. A working suspension of spores (2×10^5 spores/mL) was prepared in filter sterilised, BSA MOPS RPMI-1640 (50 mL; RPMI-1640 containing 2 mM L-glutamine, 0.5% BSA, 2% glucose, 0.165 M MOPS, buffered to pH 7 with NaOH).
For the assay, BSA MOPS RPMI-1640 (50 μL/well) was added throughout the 384-well plate (Catalogue number 353962, BD Falcon, Oxford, UK) first. Test compounds (0.5 μL DMSO solution) were then added in quadruplicate using an Integra VIAFLO 96 (Integra, Zizers, Switzerland), and mixed well using a plate mixer. Subsequently 50 μL of the working spore suspension prepared above was added to all wells except non-spore control wells. For non-spore control wells, BSA MOPS-RPMI solution (50 μL/well) was added instead. The plate was covered with a plastic lid, and incubated (35° C. with ambient air) for 48 hr. The OD of each well at 530 nm was determined using a multi-scanner (Clariostar: BMG, Buckinghamshire, UK). The percentage inhibition for each well was calculated and the MIC50, MIC75 and MIC90 values were calculated from the concentration-response curve generated for each test compound.

SMILES strings stand for the structures. Values after ≈ are worked out from the molar mass of the structure shown. Read-outs that look alike come from different tables or passages of the source.

For `C[C@@H](c1ncncc1F)[C@](O)(Cn1cncn1)c1ccc(F)cc1F` [Voriconazole], the MIC50 in [1] is above 8 µg/mL; in [2], 8 µg/mL (≈ 22.9 µM); in data set [3] it was 0.25 µg/mL (≈ 0.716 µM); in data set [4], 1 µg/mL (≈ 2.86 µM); in data set [5], 4 µg/mL (≈ 11.5 µM); in data set [6] it was 0.25 µg/mL (≈ 0.716 µM). In addition, the MIC50 in the data set on Candida krusei ATCC6258 is 0.25 µg/mL (≈ 0.716 µM); in data set [7] it was 0.016 µg/mL (≈ 0.0458 µM); in [8], above 8 µg/mL; in [9], 0.154 µM (≈ 0.0538 µg/mL). In addition, the MIC in data set [1] is above 8 µg/mL; in [2], above 8 µg/mL; in data set [3], above 8 µg/mL; in data set [4] it was 2 µg/mL (≈ 5.73 µM); in data set [5], above 8 µg/mL; in data set [6], above 8 µg/mL. Moreover, the MIC in the data set with Candida krusei ATCC6258 is 1 µg/mL (≈ 2.86 µM); in data set [7] it was 1 µg/mL (≈ 2.86 µM); in data set [8], above 8 µg/mL; in data set [11], 0.113 µM (≈ 0.0395 µg/mL). Besides, the CC50 at 1 day in [10] (read-out: BEAS2B Cell Viability CC50) is above 28.6 µM.
Consider `Cc1cc(N2CCN(c3ccc(C(=O)N[C@H]4CCCC[C@@H]4O)cc3)CC2)ccc1OC[C@@H]1CO[C@@](Cn2cncn2)(c2ccc(F)cc2F)C1` [Compound (Ia), 4-(4-(4-(((3R,5R)-5-((1H-1,2,4-triazol-1-yl)methyl)-5-(2,4-difluorophenyl)tetrahydrofuran-3-yl)methoxy)-3-methylphenyl)piperazin-1-yl)-N-((1S,2S)-2-hydroxycyclohexyl) benzamide], for which the MIC50 in data set [1] was 0.13 µg/mL (≈ 0.189 µM); in data set [2] it was 0.25 µg/mL (≈ 0.364 µM); in data set [3], 0.25 µg/mL (≈ 0.364 µM); in [4], 0.063 µg/mL (≈ 0.0917 µM); in [5], 0.125 µg/mL (≈ 0.182 µM); in [6], 0.25 µg/mL (≈ 0.364 µM). Besides, the MIC50 against Candida krusei ATCC6258 came out at 0.25 µg/mL (≈ 0.364 µM); in [7], 0.016 µg/mL (≈ 0.0233 µM); in [8], 0.25 µg/mL (≈ 0.364 µM); in [9], 0.00635 µM (≈ 0.00436 µg/mL). Besides, the MIC in data set [1] was 0.5 µg/mL (≈ 0.728 µM); in data set [2] it was 0.5 µg/mL (≈ 0.728 µM); in [3] it was above 2 µg/mL; in data set [4], 0.13 µg/mL (≈ 0.189 µM); in data set [5], above 2 µg/mL; in [6], above 2 µg/mL. In addition, the MIC with Candida krusei ATCC6258 was 0.25 µg/mL (≈ 0.364 µM); in data set [7] it was 0.063 µg/mL (≈ 0.0917 µM); in data set [8] it was 1 µg/mL (≈ 1.46 µM); in [11] it was 0.01 µM (≈ 0.00687 µg/mL). Further, the 50% cytotoxic concentration (CC50) at 1 day in [10] (BEAS2B cells) is above 14.6 µM.
Take `CC[C@@H]([C@H](C)O)n1ncn(-c2ccc(N3CCN(c4ccc(OC[C@@H]5CO[C@@](Cn6cncn6)(c6ccc(F)cc6F)C5)cc4)CC3)cc2)c1=O` [Posaconazole, reference compound]: the MIC50 is above 8 µg/mL in [1]; 0.13 µg/mL (≈ 0.186 µM) in [2]; 0.5 µg/mL (≈ 0.713 µM) in [3]; 0.063 µg/mL (≈ 0.0899 µM) in [4]; 0.25 µg/mL (≈ 0.357 µM) in [5]; 0.13 µg/mL (≈ 0.186 µM) in data set [6]. Besides, the MIC50 amounted to 0.13 µg/mL (≈ 0.186 µM) against Candida krusei ATCC6258, 0.016 µg/mL (≈ 0.0228 µM) in data set [7], 0.25 µg/mL (≈ 0.357 µM) in [8] and 0.0116 µM (≈ 0.00813 µg/mL) in data set [9]. Moreover, the MIC in data set [1] is above 8 µg/mL; in [2] it was above 8 µg/mL; in data set [3], above 8 µg/mL; in [4], 0.13 µg/mL (≈ 0.186 µM); in data set [5] it was above 8 µg/mL; in data set [6], above 8 µg/mL. The MIC in the data set on Candida krusei ATCC6258 worked out at 0.25 µg/mL (≈ 0.357 µM); in [7], 0.25 µg/mL (≈ 0.357 µM); in [8] it was 1 µg/mL (≈ 1.43 µM); in data set [11], 0.167 µM (≈ 0.117 µg/mL). Besides, the CC50 at 1 day in data set [10] (BEAS2B cells) is above 14.3 µM.

The values are drawn from patent US10513511B2, “Aqueous suspension formulation comprising 4-(4-(4-(((3R,5R)-5-((1H-1,2,4-triazol-1-yl)methyl)-5-(2,4-difluoro-phenyl)tetrahydrofuran-3-yl)methoxy)-3-methylphenyl) or a pharmaceutically acceptable salt thereof” (PULMOCIDE LIMITED, priority 2015, dated 2019).
